One experiment addresses T1, NK1 receptor (Cavia porcellus, UniProt P30547).
T1 construct: evaluated in guinea pig lungs; tissue Keystone Biologicals, Cleveland, OH; host or cells: guinea pig lung
Put plainly: Antagonism of iodinated substance P binding to NK1 receptor, guinea pig lung. The note with it: NK-1 IC50, guinea pig lung, 125I-substance P, mean of several experiments. Here is the method:
(§1) ANTAGONISM OF IODINATED TACHYKININ BINDING TO NK1 AND NK2
(§2) RECEPTORS BY PUTATIVE ANTAGONISTS
(§3) The NK1 receptor affinity of proposed tachykinin antagonists was evaluated in guinea pig lungs (Keystone Biologicals, Cleveland, OH), affinity for the NK2 receptor evaluated in HSKR-1 cells (which are mouse 3T3 fibroblasts expressing the human jejunal NK2 receptor) and NK-3 receptor affinity was evaluated in freshly collected guinea pig cerebral cortex. Tissues or cells were homogenized with a Polytron in 15 volumes of 50 mM Tris-HCl buffer (pH 7.4, 4° C.) and centrifuged. The pellet was resuspended in Tris-HCl buffer and was centrifuged; the pellet was washed twice by resuspension. The final pellet was resuspended at a concentration of 40 mg/ml for tissues (guinea pig lung and cerebral cortex) and 20 mg/ml for cells in incubation buffer and remained at room temperature for at least 15 min prior to use. Receptor binding was initiated by addition of 250 ul membrane preparation in duplicate to 0.1 nM of the following radioligands: ^125 I-Bolton Hunter Lys-3 labeled substance P; ^125 iodohistidyl-1-neurokinin A; and ^125 I-Bolton Hunter labeled Lys-4 eledoisin in a final volume of 500 ul of buffer containing 50 mM Tris-HCl (pH 7.4 at room temperature), 0.1% bovine serum albumin, 2 mM MnCl2, 40 ug/ml bacitracin, 4 μg/ml leupeptin and chymostatin, 1 μM thiorphan and various doses of the putative tachykinin antagonists. Incubations were performed at room temperature for 90 min (NK1 receptor assays) or 2 hr (NK2 and NK3 receptor assays); binding was terminated by addition of 50 mM Tris-HCl buffer (pH 7.4, 4° C.) and filtration under vacuum through GF/B filters presoaked with 0.1% polyethyleneimine (NK1 receptor assays) or 0.5% bovine serum albumin (NK2 and NK3 receptor assays). Filter bound radioactivity was quantitated in a gamma counter. Nonspecific binding was defined as binding in the presence of 1 μM substance P, neurokinin A, or eledoisin. Specific binding was calculated by subtracting nonspecific binding from total binding. Competition of iodinated SP, NKA, or eledoisin binding by test compounds or standards was expressed as a percentage of this maximum competition. IC50 values (concentration required to inhibit 50% of receptor binding) were generated for each of the test compounds by nonlinear regression using an iterative curve fitting program (GraphPAD Inplot, San Diego, Calif.).

In a further experiment the target is T2, NK-3 receptor (Cavia porcellus, UniProt P30098).
T2 construct: evaluated in freshly collected guinea pig cerebral cortex; from tissue; host or cells: guinea pig cerebral cortex
T2 sequence (P30098 1-440): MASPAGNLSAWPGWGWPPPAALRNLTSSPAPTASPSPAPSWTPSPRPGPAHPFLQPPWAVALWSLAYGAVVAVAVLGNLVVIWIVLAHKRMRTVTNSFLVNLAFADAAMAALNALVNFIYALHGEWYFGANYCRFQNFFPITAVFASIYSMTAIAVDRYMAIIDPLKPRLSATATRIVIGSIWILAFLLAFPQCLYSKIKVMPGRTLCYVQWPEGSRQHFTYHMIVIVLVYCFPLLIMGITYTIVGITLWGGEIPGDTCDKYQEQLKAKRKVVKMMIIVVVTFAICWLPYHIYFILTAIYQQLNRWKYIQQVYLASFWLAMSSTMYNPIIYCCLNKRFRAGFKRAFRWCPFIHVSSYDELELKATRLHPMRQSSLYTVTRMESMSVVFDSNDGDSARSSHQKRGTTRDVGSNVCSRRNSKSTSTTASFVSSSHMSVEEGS
Put plainly: Antagonism of iodinated eledoisin binding to NK3 receptor, guinea pig cerebral cortex. The settings on record: NK-3 IC50, guinea pig cerebral cortex, 125I-eledoisin, mean of several experiments. As for the experimental part:
as §1, §2
as §3, with “Nonspecific binding was defined as binding in the presence of 1 μM substance P, neurokinin A, or eledoisin.” left out, “IC50 values (concentration required to inhibit 50% of receptor binding) were generated for each of the test compounds by nonlinear regression using an iterative curve fitting program (GraphPAD Inplot, San Diego, Calif.).” left out

Experiment [1] deals with T3, human jejunal NK2 receptor (Homo sapiens, UniProt P21452).
T3 construct: expressed in transfected cells; host or cells: HSKR-1 cells (mouse 3T3 fibroblasts)
T3 sequence (P21452 1-398): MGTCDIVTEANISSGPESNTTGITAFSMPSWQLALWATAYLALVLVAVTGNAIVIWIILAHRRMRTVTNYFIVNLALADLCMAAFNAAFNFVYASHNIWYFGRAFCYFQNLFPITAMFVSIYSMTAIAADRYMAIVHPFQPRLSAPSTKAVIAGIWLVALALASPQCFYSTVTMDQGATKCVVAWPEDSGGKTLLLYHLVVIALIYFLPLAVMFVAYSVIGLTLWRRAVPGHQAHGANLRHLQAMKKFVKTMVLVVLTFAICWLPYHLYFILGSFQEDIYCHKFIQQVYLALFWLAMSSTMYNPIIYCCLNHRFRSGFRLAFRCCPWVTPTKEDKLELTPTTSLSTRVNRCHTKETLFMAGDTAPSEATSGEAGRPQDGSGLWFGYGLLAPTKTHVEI
Put plainly: Antagonism of iodinated neurokinin A binding to NK2 receptor, HSKR-1 cells (mouse 3T3 fibroblasts expressing the human jejunal NK2 receptor). The note with it: NK-2 IC50, HSKR-1 cells, 125I-neurokinin A, mean of several experiments. As for the experimental part:
as §1, §2, §3

For 1 molecule, IC50 results are on record in patent US5635510A, “Substituted pyrrolidin-3-yl-alkyl-piperidines” (Merrell Pharmaceuticals Inc., priority 1994, dated 1997).

SMILES strings stand for the structures.

T1 sequence (P30547 whole entry): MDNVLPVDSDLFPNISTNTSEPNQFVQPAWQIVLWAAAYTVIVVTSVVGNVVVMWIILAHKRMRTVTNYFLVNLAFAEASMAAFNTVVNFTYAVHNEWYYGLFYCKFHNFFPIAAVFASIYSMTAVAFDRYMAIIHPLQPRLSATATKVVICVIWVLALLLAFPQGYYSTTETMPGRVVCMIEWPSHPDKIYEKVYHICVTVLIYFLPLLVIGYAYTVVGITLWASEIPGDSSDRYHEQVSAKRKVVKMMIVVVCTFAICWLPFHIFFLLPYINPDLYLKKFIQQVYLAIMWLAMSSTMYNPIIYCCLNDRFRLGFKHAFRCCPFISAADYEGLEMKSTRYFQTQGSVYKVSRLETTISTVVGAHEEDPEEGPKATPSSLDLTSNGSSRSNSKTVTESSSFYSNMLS

As a reminder, the IC50 is the concentration that gives 50% inhibition. Low readings indicate greater potency in that assay, high ones weaker potency in that assay. As for `COc1cc(C(=O)N2CCC(CCN3CCC(C(N)=O)(c4ccccc4)CC3)(c3ccc(Cl)c(Cl)c3)C2)cc(OC)c1OC` (single isomer, unassigned; (-)) [Example 21, (-)-1-[2-[3-(3,4-dichlorophenyl)-1-(3,4,5-trimethoxy-benzoyl)-pyrrolidin-3-yl]-ethyl]-4-phenyl-piperidine-4-carboxylic acid amide], the concentration for half-maximal inhibition (IC50) at NK1 receptor was found to be 183 nM; on NK-3 receptor, 2300 nM; in experiment [1], 760 nM.
